Assay results: the supplement of paper PMC10307832

Experiments:
Assay in all cases: relative viability (nuclei count vs DMSO), 5 days (fraction); higher = more cells survive
[1] = compound: COC1=C(C=C(C=C1)C2=CC3=NC=CN3C(=N2)NC4=C(C=CC=N4)C(=O)N)OC [BAY61-3606] + Nc1nc2[nH]cc(CCc3ccc(C(=O)N[C@@H](CCC(=O)O)C(=O)O)cc3)c2c(=O)[nH]1 [Pemetrexed] (partner 0.2 µM)
Summary of the method: (§1)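 Five library-drug doses in √10 steps were combined with a fixed anchor-drug dose, or a single drug was given alone, by pin tool to lung cancer cell lines in 1536-well plates the day after seeding. Nuclei were stained and counted after 5 days. Relative viability is the nuclei count in treated wells over that in vehicle wells, taken as the median of duplicate plates.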

[2] = compound: COc1cccc2c1C(=O)c1c(O)c3c(c(O)c1C2=O)C[C@@](O)(C(=O)CO)C[C@@H]3O[C@H]1C[C@H](N)[C@H](O)[C@H](C)O1 [Doxorubicin] + COc1cc2c(Oc3ccc(NC(=O)C4(C(=O)Nc5ccc(F)cc5)CC4)cc3F)ccnc2cc1OCCCN1CCOCC1 [Foretinib] (partner 0.25 µM)
Summary of the method: as §1

[3] = compound: COc1cccc2c1C(=O)c1c(O)c3c(c(O)c1C2=O)C[C@@](O)(C(=O)CO)C[C@@H]3O[C@H]1C[C@H](N)[C@H](O)[C@H](C)O1 [Doxorubicin] + CC(=O)Nc1cccc(-n2c(=O)n(C3CC3)c(=O)c3c(Nc4ccc(I)cc4F)n(C)c(=O)c(C)c32)c1 [Trametinib] (partner 0.02 µM)
Summary of the method: as §1

[4] = compound: COc1cccc2c1C(=O)c1c(O)c3c(c(O)c1C2=O)C[C@@](O)(C(=O)CO)C[C@@H]3O[C@H]1C[C@H](N)[C@H](O)[C@H](C)O1 [Doxorubicin] + Nc1nc2[nH]cc(CCc3ccc(C(=O)N[C@@H](CCC(=O)O)C(=O)O)cc3)c2c(=O)[nH]1 [Pemetrexed] (partner 0.2 µM)
Summary of the method: as §1

| Cell Line | relative viability ([1]; first compound 0.02 µM) | relative viability ([1]; first compound 0.06325 µM) | relative viability ([1]; first compound 0.2 µM) | relative viability ([1]; first compound 0.6325 µM) | relative viability ([1]; first compound 2 µM) | relative viability ([2]; first compound 0.003162 µM) | relative viability ([2]; first compound 0.01 µM) | relative viability ([2]; first compound 0.03162 µM) | relative viability ([2]; first compound 0.1 µM) | relative viability ([3]; first compound 0.001 µM) | relative viability ([3]; first compound 0.003162 µM) | relative viability ([3]; first compound 0.01 µM) | relative viability ([3]; first compound 0.03162 µM) | relative viability ([3]; first compound 0.1 µM) | relative viability ([4]; first compound 0.001 µM) | relative viability ([4]; first compound 0.003162 µM) | relative viability ([4]; first compound 0.01 µM) | relative viability ([4]; first compound 0.03162 µM) | relative viability ([4]; first compound 0.1 µM) | relative viability ([2]; first compound 0.001 µM) |
| --- | --- | --- | --- | --- | --- | --- | --- | --- | --- | --- | --- | --- | --- | --- | --- | --- | --- | --- | --- | --- |
| NCI-H441 | 0.263 | 0.236 | 0.271 | 0.238 | 0.242 | 1.04 | 0.897 | 0.48 | 0.368 | 0.426 | 0.471 | 0.45 | 0.205 | 0.188 | 0.253 | 0.264 | 0.265 | 0.229 | 0.224 |  |
| NCI-H1993 | 0.642 | 0.564 | 0.541 | 0.57 | 0.461 | 0.851 | 0.769 | 0.673 | 0.839 | 0.667 |  | 0.501 | 0.473 | 0.513 | 0.603 | 0.685 | 0.58 | 0.57 | 0.528 | 0.876 |
| NCI-H1734 | 0.401 | 0.409 | 0.383 | 0.358 | 0.354 | 0.989 | 0.934 | 0.68 | 0.769 | 0.689 | 0.724 | 0.641 | 0.611 | 0.634 | 0.468 | 0.404 | 0.398 | 0.448 | 0.421 | 0.854 |
| NCI-H1666 | 0.84 | 0.911 | 0.81 | 0.973 | 0.909 | 0.872 | 0.792 | 0.5 | 0.468 |  | 0.796 | 0.65 | 0.584 | 0.517 |  | 0.858 | 0.724 | 0.782 | 0.757 | 0.964 |
| NCI-H647 | 0.146 | 0.156 | 0.184 | 0.145 | 0.131 | 1.38 | 1.14 | 0.882 | 0.545 | 0.449 | 0.623 | 0.543 | 0.295 | 0.202 | 0.211 | 0.168 | 0.196 | 0.127 | 0.163 | 1.2 |
| LCLC-97TM1 | 0.188 | 0.165 | 0.195 | 0.145 | 0.166 | 0.861 | 0.895 | 0.882 | 0.891 | 0.193 | 0.219 | 0.15 | 0.199 | 0.209 | 0.188 | 0.179 | 0.179 | 0.17 | 0.181 | 0.977 |
| LOU-NH91 | 0.402 | 0.385 | 0.413 | 0.38 | 0.413 | 0.879 | 0.944 | 0.931 | 0.839 |  | 0.724 | 0.766 | 0.766 | 0.654 |  | 0.415 | 0.359 | 0.365 | 0.276 | 0.742 |
| RERF-LC-KJ | 0.467 | 0.463 | 0.501 | 0.484 | 0.432 | 0.944 | 0.81 | 0.761 | 0.867 | 0.659 | 1.02 | 0.696 | 0.514 | 0.513 | 0.458 | 0.496 | 0.418 | 0.39 | 0.382 | 0.9 |
| NCI-H1437 | 0.333 | 0.342 | 0.33 | 0.31 | 0.346 | 1.26 | 1.24 | 1.1 | 0.621 | 0.564 | 0.609 | 0.46 | 0.363 | 0.26 | 0.32 | 0.297 | 0.303 | 0.315 | 0.329 | 1.16 |
| NCI-H2087 | 0.578 | 0.685 | 0.682 | 0.625 | 0.588 | 1.1 | 1.03 | 0.851 | 0.693 | 0.17 | 0.201 | 0.158 | 0.172 | 0.166 | 0.577 | 0.731 | 0.579 | 0.615 | 0.668 |  |
| SW 900 | 0.473 |  |  | 0.465 | 0.358 | 1.06 | 0.727 | 0.727 | 0.958 |  | 1.01 | 0.75 | 0.623 | 1.03 |  | 0.461 | 0.465 | 0.498 | 0.412 | 0.929 |
